{
  "source": "patent US4300557A",
  "about": "“Method for treating intraocular malignancies” (The United States of America as represented by the …, priority 1980, dated 1981)",
  "key": {"[1]": {"experiment": "Release of BCNU from silicone balloons into water", "assay_type": "physicochemical", "method": "Into one balloon prepared as in Example 1 was injected 0.15 ml. of 1% ethanol containing 0.6 mg. of BCNU and into a second balloon 0.15 ml. of 10% ethanol containing 0.5 mg of BCNU.\nEach balloon was placed in a scintillation vial containing 5 ml of water and shaken at 37° C. in an automatic shaker. At specified time intervals, the aqueous liquid was removed from the vials containing the balloons. The amount of BCNU dissolved in the water was determined by spectroscopic analysis (absorbance at 232 nm). The water in each scintillation vessel was replaced with 5 ml. of fresh water. […] Results for both ethanolic solutions were as in FIG. 2. (- - -).\nBCNU (7.5 mg/0.15 ml sesame oil) was injected into a silicone balloon which was placed in a flask with 5 ml of distilled water and shaken in an automatic shaker at 37° C. The procedure of Example 3(a) was repeated for as many time as positive absorption at 232 nm was recorded. When the experiment had to be interrupted overnight, the dried silicone balloon containing BCNU in sesame oil was stored at -15° C.\nBCNU in absolute ethanol solution (13 mg/0.15 ml, 20 mg/0.15 ml, and 60 mg/0.15 ml) was injected in each of three silicone balloons. Release of BCNU from the balloon was followed as in Example 3. Results of this experiment are shown in FIG. 3, in which (--. --. --.) represents data for the solution containing 13 mg of BCNU, (- - -) the solution containing 20 mg and (--) the solution containing 60 mg. A sharp drop in the BCNU release rate after 3-4 hours, indicated by the arrow in the Figure, is correlated with diffusion of all of the ETOH from the balloons."}, "Brown-Pearce epithelioma": {"tested_on": "Brown-Pearce epithelioma", "experiment": "In vivo testing in rabbits with intracameral Brown-Pearce epithelioma, clinical results", "parameters": "species or system New Zealand female albino rabbits; reduction in tumor growth: dose or concentration left out as unconfirmed", "settings": "for Day Tumor Destroyed Whole Eye, Treated Eye: * eye not yet destroyed by day of enucleation", "description": "Preoperative examination of 28 eyes in 14 New Zealand femal albino rabbits weighing 2.0 to 2.5 kg included biomicroscopy, tonotometry, and indirect ophthalmoscopy. All animals had normal eyes. Both eyes of each animal were inoculated intracamerally with Brown-Pearce epithelioma tissue by the technique at 993 of Liu et al., Invest. Ophthalmol Visual Sci., Vol. 17 (1978).\nThree days after tumor tissue implantation, a silicone device described in Example 1 was implanted episclerally in each eye. Animals were anesthetized with sodium pentobarbital 24 mg/kg body weight administered intravenously. After routine preparation of the rabbit and the eyes, a pocket beneath the conjunctiva and Tenon's capsule was made in the upper temporal quadrant of the eye. The silicone device was inserted into the pocket but the small tube remained accessible to permit injection of test substance. Two 7-0 silk sutures were applied on both shoulders of the silicone device and on the episcleral tissue at the pars plana to hold the device in position. The conjunctiva was closed with two 7-0 silk sutures. […] 5. The injecting tube was fixed on the upper fornix.\nSeven animals (Group 1A) received 3.0 mg of BCNU in 0.15 ml of sesame oil in one eye on the third, sixth, and ninth days after tumor implantation (total dose 9.0 mg). Three animals (Group 1B) received 12.0 mg of BCNU in 0.15 ml of sesame oil on the same schedule (total dose 36.0/mg). […] The fellow eyes served as controls and received diluent only.\nOcular examinations were made on alternate days during the 20 days following tumor implantation; at that time all eyes were enucleated. The effectiveness of treatment was measured by (1) comparing the extent of tumor growth in the anterior chamber of treated and control eyes, (2) noting the occurrence of distortion and perforation of the globe due to tumor growth, (3) weighing all eyes following enucleation, and (4) comparing the histopathologic changes in the eyes.\nClinical results, tabulated below, indicate the day on which the tumor occupied the anterior chamber and the weight of the enucleated eyes. The first day was the day on which tumor tissue was implanted."}, "[2]": {"settings": "Group IA: 3.0 mg BCNU in sesame oil, days 3, 6 and 9"}, "[3]": {"settings": "Group IB: 12.0 mg BCNU in sesame oil, days 3, 6 and 9"}, "[4]": {"settings": "Group II: 13.0 mg BCNU in pure ethanol, days 3 and 6"}},
  "note": "Values joined by “and” are separate entries in the source; they are usually repeats but may differ in a detail not shown here. Equal entries are not always repeated.",
  "data": [
    {"smiles": "O=NN(CCCl)C(=O)NCCCl", "note": "[BCNU, 1,3-bis-(2-chloroethyl)-1-nitrosourea]", "values": [
      {"measurement": "rate of BCNU release from silicone balloons into water", "setting": "[1]; 1% or 10% ethanol, 37° C.", "value": "rapidly decreasing rate"},
      {"measurement": "BCNU release rate after alcohol depletion, comparison of the three balloons", "setting": "[1]; 13, 20 and 60 mg/0.15 ml absolute ethanol", "value": "about the same for the three balloons"},
      {"measurement": "depletion of BCNU from silicone microballoons", "setting": "[1]; BCNU in sesame oil", "value": "depleted rather rapidly"},
      {"measurement": "rate of BCNU release from silicone microballoons into water", "setting": "[1]; BCNU in sesame oil, 37° C.", "value": "variable rate"},
      {"measurement": "BCNU remaining inside balloons after alcohol depletion", "setting": "[1]; absolute ethanol", "value": "essentially pure BCNU remained inside the balloons"},
      {"measurement": "time of sharp drop in the BCNU release rate", "setting": "[1]; absolute ethanol, 13, 20 and 60 mg/0.15 ml, 37° C.", "value": "3 to 4", "unit": "h"},
      {"measurement": "rate of BCNU diffusion from balloon into water after alcohol depletion", "setting": "[1]; absolute ethanol, after the alcohol has left", "value": "relatively constant rate"},
      {"measurement": "duration of BCNU release", "setting": "[1]; balloon containing the largest amount (60 mg/0.15 ml absolute ethanol)", "value": "released it over the longest time"},
      {"measurement": "reduction of tumor growth", "setting": "Brown-Pearce epithelioma; 3.0 or 12.0 mg BCNU in 0.15 ml sesame oil, days 3, 6 and 9", "value": "Significant reduction of tumor growth"},
      {"measurement": "therapeutic results", "setting": "Brown-Pearce epithelioma; BCNU in absolute ethanol, silicone balloons 0.1-0.2 mm wall", "value": "good therapeutic results"},
      {"measurement": "Aver. wt of eyes after enucleation, treated eye", "setting": "Brown-Pearce epithelioma; Group I (IA and IB), sesame oil, 10 treated eyes", "value": 5.2, "unit": "g"},
      {"measurement": "growth of the implanted tumor tissue in the anterior chamber", "setting": "Brown-Pearce epithelioma; Group I, BCNU in sesame oil", "value": "slowed in all 10 eyes"},
      {"measurement": "Aver. wt of eyes after enucleation, treated eye", "setting": "Brown-Pearce epithelioma; Group IA, 3.0 mg in sesame oil", "value": 5.7, "unit": "g"},
      {"measurement": "eyes retaining normal shape and size without distortion for 15 days", "setting": "Brown-Pearce epithelioma; Group IA, three doses of 3.0 mg in sesame oil, 15 days after tumor implantation", "value": "six eyes of the seven"},
      {"measurement": "Day Tumor Occupied Anterior Chamber, Treated Eye", "setting": "Brown-Pearce epithelioma; [2]", "value": "13 days and 14 days and 12 days and 18 days"},
      {"measurement": "Day Tumor Destroyed Whole Eye, Treated Eye", "setting": "Brown-Pearce epithelioma; [2]", "value": "18 days and 19 days and 17 days and 16 days and > 18 days and 15 days"},
      {"measurement": "Aver. wt of eyes after enucleation, treated eye", "setting": "Brown-Pearce epithelioma; Group IB, 12.0 mg in sesame oil", "value": 4.1, "unit": "g"},
      {"measurement": "eyes retaining normal shape and size without distortion for 19 days", "setting": "Brown-Pearce epithelioma; Group IB, three doses of 12.0 mg in sesame oil, 19 days after tumor implantation", "value": "Two eyes of the three"},
      {"measurement": "Day Tumor Occupied Anterior Chamber, Treated Eye", "setting": "Brown-Pearce epithelioma; [3]", "value": "20 days and 17 days and 11 days"},
      {"measurement": "Weight of Eyes After Enucleation, Treated Eye", "setting": "Brown-Pearce epithelioma; [3]", "value": "3.5 g and 5.2 g"},
      {"measurement": "Day Tumor Destroyed Whole Eye, Treated Eye", "setting": "Brown-Pearce epithelioma; [3]", "value": "> 20 days and 20 days and 17 days"},
      {"measurement": "average weight of the four treated eyes after enucleation", "setting": "Brown-Pearce epithelioma; Group II, BCNU in pure ethanol", "value": 3.1, "unit": "gm"},
      {"measurement": "response of treated eyes", "setting": "Brown-Pearce epithelioma; Group II, BCNU in pure ethanol", "value": "Each of the four eyes treated showed good response"},
      {"measurement": "tumor tissue growth in the anterior chamber on the fifteenth day", "setting": "Brown-Pearce epithelioma; Group II, BCNU in pure ethanol, day 15", "value": "almost completely arrested in three of the four treated eyes"},
      {"measurement": "eyes retaining normal shape and size on the twentieth day", "setting": "Brown-Pearce epithelioma; Group II, BCNU in pure ethanol, day 20", "value": "all four treated eyes retained their normal shape and size"},
      {"measurement": "Aver. wt of eyes after enucleation, treated eye", "setting": "Brown-Pearce epithelioma; Group II, pure ethanol", "value": 3.1, "unit": "g"},
      {"measurement": "Day Tumor Occupied Anterior Chamber, Treated Eye", "setting": "Brown-Pearce epithelioma; [4]", "value": "18 days and 15 days and 20 days"},
      {"measurement": "Weight of Eyes After Enucleation, Treated Eye", "setting": "Brown-Pearce epithelioma; [4]", "value": "2.8 g and 3.2 g and 3.3 g"},
      {"measurement": "Day Tumor Destroyed Whole Eye, Treated Eye", "setting": "Brown-Pearce epithelioma; [4]", "value": "> 20 days and > 29 days"},
      {"measurement": "reduction in tumor growth", "setting": "Brown-Pearce epithelioma; absolute ethanol (so in the source), days 3 and 6", "value": "greatest reduction in tumor growth"},
      {"measurement": "Aver. wt. of eyes after enucleation, treated eye", "setting": "Brown-Pearce epithelioma; all eyes (Groups I and II)", "value": 4.6, "unit": "g"}
    ]}
  ]
}
